# In PubChem BioAssay (NCI):
#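 Five concentrations, 48 hours, 96-well plates. At the GI50, growth is halved. TGI: total growth inhibition.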
# Tests used:
# Test in all cases: NCI tumour cell line growth inhibition, 48 h
# [1] = tested on: A498 renal
# [2] = tested on: CCRF-CEM leukemia
# [3] = tested on: HT29 colon
# [4] = tested on: KM12 colon
# [5] = tested on: NCI-H460 lung
# [6] = tested on: OVCAR-8 ovarian
# [7] = tested on: UO-31 renal
# [8] = tested on: UACC-257 melanoma
SMILES,GI50 [1] [µM],TGI [1] [µM],GI50 [2] [µM],TGI [2] [µM],GI50 [3] [µM],TGI [3] [µM],GI50 [4] [µM],TGI [4] [µM],GI50 [5] [µM],TGI [5] [µM],GI50 [6] [µM],TGI [6] [µM],GI50 [7] [µM],TGI [7] [µM],TGI [8] [µM],GI50 [8] [µM]
CN1CCN(CC(O)COc2c(Br)c(Br)c(Br)c3c2OC(C)(C)C3)CC1 (stereo not drawn),10.1,28.7,3.11,16.2,2.16,4.54,6.06,43.2,3.1,10.6,10.3,42.2,9.24,31,,
CC1(C)CCC[C@]2(C)[C@@H](C=O)C(C=O)=CC[C@@H]12,,> 100,,80.1,,30,,31.5,,,,31.2,,29.9,31.5,
COc1cc(/C=C/[N+](=O)[O-])cc(Br)c1OC,2.03,8.53,6.65,44.5,1.81,3.57,3,10.1,3.48,11.4,3.54,13.1,1.86,3.49,10.4,2.88
CN1CCC(n2cnc(-c3ccc(F)cc3)c2-c2ccnc(N)n2)CC1,5.85,> 23.5,14.4,> 25,6.2,> 25,8.64,> 25,7.01,> 25,6.3,> 25,2.55,16.1,> 25,11.7
Nc1ccc(-c2nc3ccccc3[nH]2)c2ccccc12,1.07,15,2.03,> 43.2,1.49,14.6,1.92,16.1,3.9,> 100,5.2,65.1,5.32,> 82.8,> 100,6.46
C[C@@H]1O[C@@H](OC[C@H]2O[C@@H](OCCc3ccc(O)c(O)c3)[C@H](O)[C@@H](O)[C@@H]2OC(=O)/C=C/c2ccc(O)c(O)c2)[C@H](O)[C@H](O)[C@H]1O,,,,,,,> 100,> 100,> 100,> 100,> 100,> 100,> 100,> 100,> 100,> 100
COC12c3ccccc3-c3ccccc3C1[C@H]1C(=O)OC(=O)[C@H]12 (stereo partly drawn),,> 10,,> 10,,> 10,,> 10,,> 10,,> 10,,> 10,> 10,
BrCc1ccc(CBr)cc1,18.3,38.1,2.07,,4.38,> 23.9,1.29,6.71,4.84,17.4,5.52,20.9,7.58,> 63.2,38.9,14
CC1(C)N=C(N)N=C(N)N1c1ccc(CCCCc2ccc(S(=O)(=O)F)cc2)c(Cl)c1,0.981,18,0.107,17.4,0.0566,15.3,0.454,15.2,0.0399,12.6,0.452,18.4,9.59,> 100,19.1,0.929
O=C([CH-]C(=O)c1ccccc1)c1ccccc1.O=C([CH-]C(=O)c1ccccc1)c1ccccc1.[OH-].[OH-].[Ti+4],40.5,> 100,,,> 100,> 100,> 100,> 100,60.3,> 100,55,> 100,59.3,> 100,> 100,> 100
CN(CCCCCl)P(=O)(OCCS(=O)(=O)CC(NC(=O)CCC(N)C(=O)O)C(=O)NC(C(=O)O)c1ccccc1)OCC1OC(n2cc(F)c(=O)[nH]c2=O)CC1O (stereo not drawn),,> 100,< 0.0376,33.1,2.68,> 100,13.3,> 78,< 0.01,,0.274,> 100,0.0973,> 81.2,> 100,4.58
C[CH2][Pb]([CH2]C)([CH2]C)[O]C(=O)c1ccc2ccccc2n1,> 10,> 10,> 10,> 10,> 10,> 10,> 10,> 10,> 10,> 10,> 10,> 10,> 10,> 10,> 10,> 10
CCN1C(=O)N(CC)C2C1NN=c1s/c(=C3\C(=O)N(CCc4ccccc4)c4ccccc43)c(=O)n12 (stereo not drawn),0.115,0.603,2.58,> 100,0.351,1.58,0.38,11.2,0.361,1.88,0.74,> 43.1,1.03,> 35.2,> 100,3.77
CC(C)(C)CN1CCn2c(nc3c(N)nccc32)S1,,,10.2,> 100,,,4.23,17.1,4.25,17.3,6.27,> 100,37.1,> 100,79.1,19.7
CC1(C)OC2C(=O)C=C(COCc3ccccc3)C2O1 (stereo not drawn),,> 100,,> 100,,> 100,,51.1,,,,> 100,,50.1,> 100,
COc1ccc(/C=N/NC(=O)Cn2c(-c3ccc(S(C)(=O)=O)cc3)nc3cc(Cl)ccc32)cc1,0.79,3.65,0.318,> 50,0.689,7.19,0.979,> 50,1.51,> 50,1.79,> 50,3.45,> 50,> 50,> 50
